In brackets after ≈: the same amount, converted by molar mass. Several values for one entry are separate records, joined by “and”; a condition that tells them apart may be missing. Equal values may be shown once. Where a name gives a salt, the structure may show the parent alone. Read-outs that look alike come from different tables or passages of the source.
Assays:
[1] = system: Staphyloccus aureus; experiment: bacteriostatic activity (MIC), Staphylococcus aureus; type: cell-based
Description: (§1) The medium containing the solution to be tested is inoculated in the form of three single striae with a 10^-5 times dilution of a bacterial culture aged 16 to 18 hours grown in salted peptone broth at a temperature of 37° C.
(§2) After inoculation, the media are stored at 37° C. for 48 hours, after which the bacterial growth is inspected. The MIC (minimum inhibiting concentrations) are expressed in micrograms of pure product per cubic centimeter of gelose medium required for inhibiting the culture (μg/cc). The control substance used is benzalconium chloride.
(§3) Tests were also carried out to determine the bacteriostatic activity of other compounds according to the invention by the method described above and in comparison with known substances, in particular with benzalconium chloride (compound T in the Tables).

[2] = system: Bacillus subtilis; experiment: bacteriostatic activity (MIC), Bacillus subtilis; type: cell-based
Description: as §1, §2, §3

[3] = system: Pseudomonas aeruginosa; experiment: bacteriostatic activity (MIC), Pseudomonas aeruginosa; type: cell-based
Description: as §1, §2, §3

[4] = system: Escherichia coli; experiment: bacteriostatic activity (MIC), Escherichia coli; type: cell-based
Description: as §1, §2, §3

[5] = solubility
[6] = system: Proteus vulgaris; experiment: bacteriostatic activity (MIC), Proteus vulgaris; type: cell-based; details: Table I, 37° C., 48 hours
Description: as §2, with “The medium containing the solution to be tested is inoculated in the form of three single striae with a 10^-5 times dilution of a bacterial culture aged 16 to 18 hours grown in salted peptone broth at a temperature of 37° C. After” for “After”

[7] = system: Enterbacter cloacae; experiment: bacteriostatic activity (MIC), Enterbacter cloacae; type: cell-based; details: Table I, 37° C., 48 hours
Description: as §2, with “The medium containing the solution to be tested is inoculated in the form of three single striae with a 10^-5 times dilution of a bacterial culture aged 16 to 18 hours grown in salted peptone broth at a temperature of 37° C. After” for “After”

[8] = system: Serratia; experiment: bacteriostatic activity (MIC), Serratia; type: cell-based; details: Table I, 37° C., 48 hours
Description: as §2, with “The medium containing the solution to be tested is inoculated in the form of three single striae with a 10^-5 times dilution of a bacterial culture aged 16 to 18 hours grown in salted peptone broth at a temperature of 37° C. After” for “After”

[9] = system: Moraxella glucidolytica; experiment: bacteriostatic activity (MIC), Moraxella glucidolytica; type: cell-based; details: Table I, 37° C., 48 hours
Description: as §2, with “The medium containing the solution to be tested is inoculated in the form of three single striae with a 10^-5 times dilution of a bacterial culture aged 16 to 18 hours grown in salted peptone broth at a temperature of 37° C. After” for “After”

[10] = system: Pneumobacille; experiment: bacteriostatic activity (MIC), Pneumobacille; type: cell-based; details: Table I, 37° C., 48 hours
Description: as §2, with “The medium containing the solution to be tested is inoculated in the form of three single striae with a 10^-5 times dilution of a bacterial culture aged 16 to 18 hours grown in salted peptone broth at a temperature of 37° C. After” for “After”

[11] = Staphylococcus aureus, 48 h, Table VI, bacteriostase containing 20% of serum, read-out: M.I.C.
[12] = Staphylococcus aureus, 48 h, Table VI, bacteriostase without serum, read-out: M.I.C.
[13] = Bacillus subtilis, 48 h, Table VI, bacteriostase containing 20% of serum, read-out: M.I.C.
[14] = Bacillus subtilis, 48 h, Table VI, bacteriostase without serum, read-out: M.I.C.
[15] = Pseudomonas aeruginosa, 48 h, Table VI, bacteriostase containing 20% of serum, read-out: M.I.C.
[16] = Pseudomonas aeruginosa, 48 h, Table VI, bacteriostase without serum, read-out: M.I.C.
[17] = Escherichia coli, 48 h, Table VI, bacteriostase containing 20% of serum, read-out: M.I.C.
[18] = Escherichia coli, 48 h, Table VI, bacteriostase without serum, read-out: M.I.C.
[19] = Table I, with 20% of serum, 37° C., 48 hours
[20] = Table I, without serum, 37° C., 48 hours
[21] = Table VI, bacteriostase containing 20% of serum
[22] = Table VI, bacteriostase without serum

## CCCCCCCCCCCCOCC(O)CN.Cl (stereo not shown) [Compound 2, 3-dodecyloxy-2-hydroxy-1-aminopropane hydrochloride]
[1]; [11]
  MIC: 75 µg/mL
[1]; [12]
  MIC: 10 µg/mL
[2]; [13]
  MIC: 30 µg/mL
[2]; [14]
  MIC: 5 µg/mL
[3]; [15]
  MIC: 1200 µg/mL
[3]; [16]
  MIC: 800 µg/mL
[4]; [17]
  MIC: 100 µg/mL
[4]; [18]
  MIC: 20 µg/mL

## Br.CCCCCCCCCCOCC(O)CN (stereo not shown) [Compound 3, 3-decyloxy-2-hydroxy-1-aminopropane hydrobromide]
[1]; [11]
  MIC: 75 µg/mL
[1]; [12]
  MIC: 30 µg/mL
[2]; [13]
  MIC: 50 µg/mL
[2]; [14]
  MIC: 25 µg/mL
[3]; [15]
  MIC: 250 µg/mL
[3]; [16]
  MIC: 100 µg/mL
[4]; [17]
  MIC: 60 µg/mL
[4]; [18]
  MIC: 30 µg/mL

## CCCCCCCCC(O)CN (stereo not shown) [Compound 4]
[1]; [11]
  MIC: 150 µg/mL (≈ 866 µM)
[1]; [12]
  MIC: 70 µg/mL (≈ 404 µM)
[2]; [13]
  MIC: 75 µg/mL (≈ 433 µM)
[2]; [14]
  MIC: 20 µg/mL (≈ 115 µM)
[3]; [15]
  MIC: 500 µg/mL (≈ 2890 µM)
[3]; [16]
  MIC: 400 µg/mL (≈ 2310 µM)
[4]; [17]
  MIC: 200 µg/mL (≈ 1150 µM)
[4]; [18]
  MIC: 125 µg/mL (≈ 721 µM)

## CCCCCCCCCCOCC(O)C[N+](C)(C)C (stereo not shown) [Compound 5, 3-decyloxy-2-hydroxy-N,N,N-trimethyl-1-ammonium chloride]
[1]; [11]
  MIC: 50 µg/mL
[1]; [12]
  MIC: 25 µg/mL
[2]; [13]
  MIC: 40 µg/mL
[2]; [14]
  MIC: 25 µg/mL
[3]; [15]
  MIC: 750 µg/mL
[3]; [16]
  MIC: 600 µg/mL
[5]
  solubility in water: soluble in water
[4]; [17]
  MIC: 200 µg/mL
[4]; [18]
  MIC: 125 µg/mL

## CCCCCCCCOCC(O)CN.Cl (stereo not shown) [Compound 6, 3-octyloxy-2-hydroxy-1-aminopropane hydrochloride]
[1]; [11]
  MIC: > 250 µg/mL
[1]; [12]
  MIC: > 150 µg/mL
[2]; [13]
  MIC: 200 µg/mL
[2]; [14]
  MIC: 150 µg/mL
[3]; [15]
  MIC: 500 µg/mL
[3]; [16]
  MIC: 300 µg/mL
[4]; [17]
  MIC: 300 µg/mL
[4]; [18]
  MIC: 150 µg/mL

## CCCCCCCCCC(O)CN (stereo not shown) [Compound 7]
[1]; [11]
  MIC: 150 µg/mL (≈ 801 µM)
[1]; [12]
  MIC: 75 µg/mL (≈ 400 µM)
[2]; [13]
  MIC: 50 µg/mL (≈ 267 µM)
[2]; [14]
  MIC: 30 µg/mL (≈ 160 µM)
[3]; [15]
  MIC: 500 µg/mL (≈ 2670 µM)
[3]; [16]
  MIC: 200 µg/mL (≈ 1070 µM)
[4]; [17]
  MIC: 150 µg/mL (≈ 801 µM)
[4]; [18]
  MIC: 75 µg/mL (≈ 400 µM)

## CCCCCCCCCCCC(O)CN (stereo not shown) [Compound 8, 2-hydroxy-1-amino tridecane]
[1]; [11]
  MIC: 40 µg/mL (≈ 186 µM)
[1]; [12]
  MIC: 20 µg/mL (≈ 92.9 µM)
[2]; [13]
  MIC: 30 µg/mL (≈ 139 µM)
[2]; [14]
  MIC: 3 µg/mL (≈ 13.9 µM)
[3]; [15]
  MIC: > 1500 µg/mL
[3]; [16]
  MIC: > 1000 µg/mL
[4]; [17]
  MIC: 75 µg/mL (≈ 348 µM)
[4]; [18]
  MIC: 10 µg/mL (≈ 46.4 µM)

## CCCCCCCCCCCCCCOCC(O)CN (stereo not shown) [Compound 9, 3-tetradecyloxy-2-hydroxyamino-1-propane hydrochloride]
[1]; [11]
  MIC: 50 µg/mL
[1]; [12]
  MIC: 10 µg/mL
[2]; [13]
  MIC: 30 µg/mL
[2]; [14]
  MIC: 7 µg/mL
[3]; [15]
  MIC: 2500 µg/mL
[3]; [16]
  MIC: 1250 µg/mL
[5]
  solubility in water: soluble in water
[4]; [17]
  MIC: > 1000 µg/mL
[4]; [18]
  MIC: > 500 µg/mL

## CCCCCCCCCCCCCCCCCCOCC(O)CN.Cl (stereo not shown) [Compound 10, 3-octadecyloxy-2-hydroxy-1-aminopropane hydrochloride]
[1]; [11]
  MIC: > 500 µg/mL
[1]; [12]
  MIC: > 300 µg/mL
[2]; [13]
  MIC: > 500 µg/mL
[2]; [14]
  MIC: > 300 µg/mL
[3]; [15]
  MIC: > 2500 µg/mL
[3]; [16]
  MIC: 1300 µg/mL
[4]; [17]
  MIC: > 1000 µg/mL
[4]; [18]
  MIC: > 500 µg/mL

## COCC(O)CN (stereo not shown) [Compound 11]
[1]; [11]
  MIC: > 500 µg/mL
[1]; [12]
  MIC: > 300 µg/mL
[2]; [13]
  MIC: > 500 µg/mL
[2]; [14]
  MIC: > 300 µg/mL
[3]; [15]
  MIC: > 2500 µg/mL
[3]; [16]
  MIC: > 1300 µg/mL
[4]; [17]
  MIC: > 1000 µg/mL
[4]; [18]
  MIC: > 500 µg/mL

## CCOCC(O)CN.Cl (stereo not shown) [Compound 12, 3-ethoxy-2-hydroxy-1-aminopropane hydrochloride]
[1]; [11]
  MIC: > 500 µg/mL
[1]; [12]
  MIC: > 300 µg/mL
[2]; [13]
  MIC: > 500 µg/mL
[2]; [14]
  MIC: > 300 µg/mL
[3]; [15]
  MIC: > 2500 µg/mL
[3]; [16]
  MIC: > 1300 µg/mL
[4]; [17]
  MIC: > 1000 µg/mL
[4]; [18]
  MIC: > 500 µg/mL

## CCCCCCCCCCOCC(O)CN (stereo not shown) [Compound 13, 3-decyloxy-2-hydroxy-1-aminopropane]
[1]; [11]
  MIC: 80 µg/mL (≈ 346 µM)
[1]; [12]
  MIC: 40 µg/mL (≈ 173 µM)
[2]; [13]
  MIC: 40 µg/mL (≈ 173 µM)
[2]; [14]
  MIC: 20 µg/mL (≈ 86.4 µM)
[3]; [15]
  MIC: 400 µg/mL (≈ 1730 µM)
[3]; [16]
  MIC: 150 µg/mL (≈ 648 µM)
[4]; [17]
  MIC: 250 µg/mL (≈ 1080 µM)
[4]; [18]
  MIC: 50 µg/mL (≈ 216 µM)

## CCCCCCCCCCSCC(O)CN (stereo not shown) [Compound 14, 3-decanethio-2-hydroxy-1-aminopropane hydrochloride]
[1]; [11]
  MIC: 70 µg/mL
[1]; [12]
  MIC: 10 µg/mL
[2]; [13]
  MIC: 30 µg/mL
[2]; [14]
  MIC: 5 µg/mL
[3]; [15]
  MIC: 600 µg/mL
[3]; [16]
  MIC: 200 µg/mL
[5]; alcohol
  solubility in alcohol: soluble in alcohol
[4]; [17]
  MIC: 250 µg/mL
[4]; [18]
  MIC: 50 µg/mL

## benzalconium chloride [T, reference compound]
[6]; with 20% of serum
  MIC: 75 μg/cc
[6]; without serum
  MIC: 35 μg/cc
[1]; [19]
  MIC: 12 μg/cc
[1]; [20]
  MIC: 1.5 μg/cc
[1]; [21]
  M.I.C.: 10 μg/cc and 5 μg/cc
[1]; [22]
  M.I.C.: 1.5 μg/cc and 1 μg/cc
[2]; [19]
  MIC: 7.5 μg/cc
[2]; [20]
  MIC: 2.5 μg/cc
[2]; [21]
  M.I.C.: 2.5 μg/cc and 4 μg/cc
[2]; [22]
  M.I.C.: 1 μg/cc and 2 μg/cc and 1.5 μg/cc
[3]; [19]
  MIC: 850 μg/cc
[3]; [20]
  MIC: 600 μg/cc
[3]; [21]
  M.I.C.: 750 μg/cc and 850 μg/cc and 1200 μg/cc and 1000 μg/cc
[3]; [22]
  M.I.C.: 500 μg/cc and 600 μg/cc and 700 μg/cc
[7]; with 20% of serum
  MIC: 75 μg/cc
[7]; without serum
  MIC: 20 μg/cc
[8]; with 20% of serum
  MIC: 30 μg/cc
[8]; without serum
  MIC: 10 μg/cc
[9]; with 20% of serum
  MIC: 150 μg/cc
[9]; without serum
  MIC: 75 μg/cc
[10]; with 20% of serum
  MIC: 75 μg/cc
[10]; without serum
  MIC: 35 μg/cc
[4]; [19]
  MIC: 300 μg/cc
[4]; [20]
  MIC: 125 μg/cc
[4]; [21]
  M.I.C.: 200 μg/cc and 250 μg/cc and 300 μg/cc
[4]; [22]
  M.I.C.: 125 μg/cc and 150 μg/cc

From patent US4196217A, “Hydroxylated amines with bacteriostatic activity” (priority 1978, dated 1980)
